Reference: ChEMBL document CHEMBL1132968, “Substituent effects on the antibacterial activity of nitrogen-carbon-linked (azolylphenyl)oxazolidinones with expanded activity against the fastidious gram-negative organisms Haemophilus influenzae and Moraxella catarrhalis” (2000)
In brackets after ≈: the same amount, converted by molar mass.

Experiments:
Format in all cases: functional
Streptococcus pneumoniae = assay: Inhibitory activity against Streptococcus pneumoniae UC9912
Mus musculus [1] = assay: Dose required to cure 50% of Staphylococcus aureus infected mice when orally administered; value ranges 1.1-2.7; details: po
Mus musculus [2] = assay: Dose required to cure 50% of Staphylococcus aureus infected mice in the presence of eperezolid when orally administered; value ranges from 0.1-6.6; details: po
[3] = tested on: Staphylococcus epidermidis; assay: Inhibitory activity against Methicillin-resistant Staphylococcus epidermidis UC12084
Mus musculus [4] = assay: Dose(orally administered) required to cure 50% of Staphylococcus aureus infected mice; details: po
Mus musculus [5] = assay: Dose(orally administered) required to cure 50% of Staphylococcus aureus infected mice in the presence of vancomycin; details: po
Moraxella catarrhalis = assay: Inhibitory activity against Moraxella catarrhalis UC30610
Mus musculus [6] = assay: Dose required to cure 50% of Staphylococcus aureus infected mice when orally administered; details: po
Staphylococcus aureus [7] = assay: Inhibitory activity against Methicillin-susceptible Staphylococcus aureus UC9213
Haemophilus influenzae = assay: Inhibitory activity against Haemophilus influenzae UC30063
Mus musculus [8] = assay: Dose required to cure 50% of Staphylococcus aureus infected mice in the presence of eperezolid when orally administered; value ranges from 1.1-2.8; details: po
Staphylococcus aureus [9] = assay: Inhibitory activity against Methicillin-resistant Staphylococcus aureus UC6685
Enterococcus faecalis = assay: Inhibitory activity against Enterococcus faecalis UC9217
Mus musculus [10] = assay: Dose required to cure 50% of Staphylococcus aureus infected mice when administered orally; details: po
Mus musculus [11] = assay: Dose required to cure 50% of Staphylococcus aureus infected mice in the presence of eperezolid when administered orally.; details: po
Mus musculus [12] = assay: Dose required to cure 50% of Staphylococcus aureus infected mice in the presence of vancomycin when orally administered; value ranges from 0.5-1.5; details: po
Mus musculus [13] = assay: Dose(orally administered) required to cure 50% of Staphylococcus aureus infected mice in the presence of eperezolid; details: po
Mus musculus [14] = assay: Dose required to cure 50% of Staphylococcus aureus infected mice when administered orally; value ranges from 3.1-13.1; details: po
Mus musculus [15] = assay: Dose required to cure 50% of Staphylococcus aureus infected mice in the presence of vancomycin when administered orally; value arnges from 1.0-3.2; details: po
Mus musculus [16] = assay: Dose(orally administered) required to cure 50% of Staphylococcus aureus infected mice in the presence of eperezolid (95% confidence limits); details: po
Mus musculus [17] = assay: Dose required to cure 50% of Staphylococcus aureus infected mice in the presence of eperezolid when administered orally;value ranges from 1.9-6.6; details: po
Mus musculus [18] = assay: Dose administered required to cure 50% of Staphylococcus aureus infected mice when administered orally; value ranges from 2.0-4.9; details: po
Mus musculus [19] = assay: Dose required to cure 50% of Staphylococcus aureus infected mice in the presence of eperezolid when orally administered; value ranges from 2.2-2.9; details: po
Mus musculus [20] = assay: Dose required to cure 50% of Staphylococcus aureus infected mice when orally administered; value ranges from 3.5-9.1; details: po
Mus musculus [21] = assay: Dose required to cure 50% of Staphylococcus aureus infected mice in the presence of eperezolid when administered orally; value ranges from 1.8-7.0; details: po
Mus musculus [22] = assay: Dose required to cure 50% of Staphylococcus aureus infected mice when aministered orally; value ranges from 0.8-2.0; details: po
Mus musculus [23] = assay: Dose required to cure 50% of Staphylococcus aureus infected mice in the presence of eperezolid when administered orally; value ranges from 1.8-4.4; details: po

Structure (SMILES) | MIC (Streptococcus pneumoniae) | MIC [3] | ED50 (Mus musculus [4]) | MIC (Moraxella catarrhalis) | MIC (Staphylococcus aureus [7]) | MIC (Haemophilus influenzae) | MIC (Staphylococcus aureus [9]) | MIC (Enterococcus faecalis) | further results
CC(=O)NC[C@H]1CN(c2ccc(-n3ccc(C#N)c3)c(F)c2)C(=O)O1 | ≤ 0.125 µg/mL | ≤ 0.125 µg/mL | – | – | – | – | – | – | ED50 (Mus musculus [1]): 1.9 mg/kg/day; ED50 (Mus musculus [2]): 4 mg/kg/day
CC(=O)NC[C@H]1CN(c2ccc(-n3ccc(C=O)c3)c(F)c2)C(=O)O1 | < 0.06 µg/mL | 0.125 µg/mL (≈ 0.362 µM) | > 20 mg/kg/day | – | – | – | – | – | ED50 (Mus musculus [5]): 1.7 mg/kg/day
CC(=O)NC[C@H]1CN(c2ccc(-n3cccn3)c(F)c2)C(=O)O1 | 1 µg/mL (≈ 3.14 µM) | 1 µg/mL (≈ 3.14 µM) | – | 16 µg/mL (≈ 50.3 µM) | 2 µg/mL (≈ 6.28 µM) | 32 µg/mL (≈ 101 µM) | 2 µg/mL (≈ 6.28 µM) | 2 µg/mL (≈ 6.28 µM) | ED50 (Mus musculus [6]): > 20 mg/kg/day; ED50 (Mus musculus [8]): 1.8 mg/kg/day
CC(=O)NC[C@H]1CN(c2ccc(-n3cnc(Cl)n3)c(F)c2)C(=O)O1 | < 0.125 µg/mL | 0.5 µg/mL (≈ 1.41 µM) | 9.4 mg/kg/day | 2 µg/mL (≈ 5.65 µM) | 4 µg/mL (≈ 11.3 µM) | 16 µg/mL (≈ 45.2 µM) | 2 µg/mL (≈ 5.65 µM) | 2 µg/mL (≈ 5.65 µM) | ED50 (Mus musculus [5]): 5 mg/kg/day
CC(=O)NC[C@H]1CN(c2ccc(-n3ccc(C(C)=O)c3)c(F)c2)C(=O)O1 | 0.25 µg/mL (≈ 0.696 µM) | 0.5 µg/mL (≈ 1.39 µM) | – | 4 µg/mL (≈ 11.1 µM) | 2 µg/mL (≈ 5.57 µM) | 16 µg/mL (≈ 44.5 µM) | 1 µg/mL (≈ 2.78 µM) | 1 µg/mL (≈ 2.78 µM) | ED50 (Mus musculus [10]): 6.5 mg/kg/day; ED50 (Mus musculus [11]): 10 mg/kg/day
CC(=O)NC[C@H]1CN(c2ccc(-n3ccc(CO)c3)c(F)c2)C(=O)O1 | 0.25 µg/mL (≈ 0.72 µM) | 0.25 µg/mL (≈ 0.72 µM) | – | 2 µg/mL (≈ 5.76 µM) | 1 µg/mL (≈ 2.88 µM) | 4 µg/mL (≈ 11.5 µM) | 1 µg/mL (≈ 2.88 µM) | 1 µg/mL (≈ 2.88 µM) | ED50 (Mus musculus [12]): 0.9 mg/kg/day; ED50 (Mus musculus [6]): > 20 mg/kg/day
CC(=O)NC[C@H]1CN(c2ccc(-n3cc(C=O)nn3)c(F)c2)C(=O)O1 | 0.25 µg/mL (≈ 0.72 µM) | < 0.125 µg/mL | > 20 mg/kg/day | 2 µg/mL (≈ 5.76 µM) | 0.5 µg/mL (≈ 1.44 µM) | 4 µg/mL (≈ 11.5 µM) | 0.25 µg/mL (≈ 0.72 µM) | 0.5 µg/mL (≈ 1.44 µM) | ED50 (Mus musculus [13]): 1.1 mg/kg/day
CC(=O)NC[C@H]1CN(c2ccc(-n3cncn3)c(F)c2)C(=O)O1 | 1 µg/mL (≈ 3.13 µM) | 1 µg/mL (≈ 3.13 µM) | – | 16 µg/mL (≈ 50.1 µM) | 4 µg/mL (≈ 12.5 µM) | 32 µg/mL (≈ 100 µM) | 4 µg/mL (≈ 12.5 µM) | 4 µg/mL (≈ 12.5 µM) | ED50 (Mus musculus [14]): 5.7 mg/kg/day; ED50 (Mus musculus [15]): 2.4 mg/kg/day
CCOC(=O)/C=C/c1ccn(-c2ccc(N3C[C@H](CNC(C)=O)OC3=O)cc2F)c1 | 0.5 µg/mL (≈ 1.2 µM) | 2 µg/mL (≈ 4.81 µM) | > 20 mg/kg/day | 4 µg/mL (≈ 9.63 µM) | 4 µg/mL (≈ 9.63 µM) | 32 µg/mL (≈ 77 µM) | 4 µg/mL (≈ 9.63 µM) | 2 µg/mL (≈ 4.81 µM) | ED50 (Mus musculus [16]): 2.1 mg/kg/day
CC(=O)NC[C@H]1CN(c2ccc(-n3ncc(C#N)n3)c(F)c2)C(=O)O1 | ≤ 0.125 µg/mL | ≤ 0.125 µg/mL | – | 2 µg/mL (≈ 5.81 µM) | 0.5 µg/mL (≈ 1.45 µM) | 8 µg/mL (≈ 23.2 µM) | 0.5 µg/mL (≈ 1.45 µM) | 0.5 µg/mL (≈ 1.45 µM) | ED50 (Mus musculus [17]): 3.8 mg/kg/day; ED50 (Mus musculus [18]): 3.2 mg/kg/day
CC(=O)NC[C@H]1CN(c2ccc(-n3ccc(/C=N\O)c3)c(F)c2)C(=O)O1 | ≤ 0.125 µg/mL | – | – | – | – | – | – | – | ED50 (Mus musculus [19]): 2.6 mg/kg/day; ED50 (Mus musculus [20]): 5.5 mg/kg/day
CC(=O)NC[C@H]1CN(c2ccc(-n3cc(C#N)cn3)c(F)c2)C(=O)O1 | ≤ 0.125 µg/mL | 0.25 µg/mL (≈ 0.728 µM) | – | – | – | – | – | – | ED50 (Mus musculus [21]): 3.3 mg/kg/day; ED50 (Mus musculus [22]): 1.2 mg/kg/day
COC(=O)c1ccn(-c2ccc(N3C[C@H](CNC(C)=O)OC3=O)cc2F)c1 | 0.25 µg/mL (≈ 0.666 µM) | 0.5 µg/mL (≈ 1.33 µM) | – | 16 µg/mL (≈ 42.6 µM) | 2 µg/mL (≈ 5.33 µM) | > 16 µg/mL | 2 µg/mL (≈ 5.33 µM) | 1 µg/mL (≈ 2.66 µM) | ED50 (Mus musculus [23]): 2.9 mg/kg/day; ED50 (Mus musculus [10]): > 20 mg/kg/day
